Data as given in patent US10294246B2, “Substituted boronic acids and boronate esters as immunoproteasome inhibitors” (MERCK PATENT GMBH, priority 2014, dated 2019).

What was measured:
[1] = target: human immunoproteasome (LMP7) (Homo sapiens (Human), UniProt P28062); assay: Determination of LMP7 activity (fluorescence intensity assay, Suc-LLVY-AMC); format: biochemical; details: for Selectivity LMP7 vs Beta5: LMP7 versus Beta5; for IC50: purified human immunoproteasome 0.25 nM, Suc-LLVY-AMC 40 μM
Procedure, shortened: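 0.25 nM purified human immunoproteasome preincubated 20 min at 25 °C with serially diluted compounds in 50 mM Tris pH 7.4, 0.03% SDS, 1 mM EDTA, 1% DMSO. Reaction started with 40 μM Suc-LLVY-AMC, run 60 min at 37 °C. Fluorescence read at ex 350/em 450 nm.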

[2] = target: human constitutive proteasome (Beta5) (Homo sapiens (Human), UniProt P28074); assay: Determination of Beta5 activity (fluorescence intensity assay, Suc-LLVY-AMC); format: biochemical; details: purified human constitutive proteasome 1.25 nM, Suc-LLVY-AMC 40 μM
Procedure, shortened: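 Purified constitutive proteasome (1.25 nM) was preincubated with compounds 20 min at 25 °C in 50 mM Tris pH 7.4, 0.03% SDS, 1 mM EDTA, 1% DMSO. Suc-LLVY-AMC (40 μM) was then added for 60 min at 37 °C. AMC fluorescence was read at ex 350/em 450 nm.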

SMILES | Selectivity LMP7 vs Beta5 [1] | IC50 [1] [nM] | IC50 [2] [µM]
CO[C@@H](C(=O)N[C@@H](Cc1coc2c(C)cccc12)B(O)O)c1ccccc1 [Compound No. 76, [(1R)-1-[[(2R)-2-methoxy-2-phenyl-acetyl]amino]-2-(7-methylbenzofuran-3-yl)ethyl]boronic acid] | +++++ (Selectivity ≥ 100) | < 50 | 0.5 to 5
Cc1cccc2c1OCC2C[C@H](NC(=O)Cc1ccccc1)B(O)O (stereo partly drawn) [Compound No. 77, [(1R)-2-(7-methyl-2,3-dihydrobenzofuran-3-yl)-1-[(2-phenylacetyl)-amino]ethyl]boronic acid] | +++++ (Selectivity ≥ 100) | < 50 | 0.5 to 5
COc1ccc(OC)c(CC(=O)N[C@@H](Cc2coc3c(C)cccc23)B(O)O)c1 [Compound No. 78, [(1R)-1-[[2-(2,5-dimethoxyphenyl)acetyl]amino]-2-(7-methylbenzofuran-3-yl)ethyl]boronic acid] | +++++ (Selectivity ≥ 100) | < 50 | 0.5 to 5
Cc1cccc2c(C[C@H](NC(=O)[C@H](CO)c3ccccc3)B(O)O)coc12 [Compound No. 79, [(1R)-1-[[(2S)-3-hydroxy-2-phenyl-propanoyl]amino]-2-(7-methylbenzofuran-3-yl)ethyl]boronic acid] | +++++ (Selectivity ≥ 100) | < 50 | 0.5 to 5
Cc1cccc2c(C[C@@H](NC(=O)[C@H](CO)c3ccccc3)B(O)O)coc12 [Compound No. 80, [(1S)-1-[[(2S)-3-hydroxy-2-phenyl-propanoyl]amino]-2-(7-methylbenzofuran-3-yl)ethyl]boronic acid] | +++++ (Selectivity ≥ 100) | 50 to 500 | > 5
COc1ccc(CC(=O)N[C@H](Cc2coc3c(C)cccc23)B(O)O)cc1 [Compound No. 81, [(1S)-1-[[2-(4-methoxyphenyl)acetyl]amino]-2-(7-methylbenzofuran-3-yl)ethyl]boronic acid] | +++++ (Selectivity ≥ 100) | 50 to 500 | > 5
COc1ccc(CC(=O)N[C@@H](Cc2coc3c(C)cccc23)B(O)O)cc1 [Compound No. 82, [(1R)-1-[[2-(4-methoxyphenyl)acetyl]amino]-2-(7-methylbenzofuran-3-yl)ethyl]boronic acid] | +++++ (Selectivity ≥ 100) | < 50 | 0.5 to 5
Cc1cccc2c(C[C@H](NC(=O)[C@@H](CO)c3ccccc3)B(O)O)coc12 [Compound No. 83, [(1R)-1-[[(2R)-3-hydroxy-2-phenyl-propanoyl]amino]-2-(7-methylbenzofuran-3-yl)ethyl]boronic acid] | +++++ (Selectivity ≥ 100) | < 50 | 0.5 to 5
Cc1cccc2c(C[C@@H](NC(=O)[C@@H](CO)c3ccccc3)B(O)O)coc12 [Compound No. 84, [(1S)-1-[[(2R)-3-hydroxy-2-phenyl-propanoyl]amino]-2-(7-methylbenzofuran-3-yl)ethyl]boronic acid] | ++ (10 ≤ Selectivity < 50) | 500 to 5000 | > 5
O=C(Cc1ccccc1)N[C@@H](Cc1coc2c(Cl)cccc12)B(O)O [Compound No. 85, [(1R)-2-(7-chlorobenzofuran-3-yl)-1-[(2-phenylacetyl)amino]ethyl]-boronic acid] | +++++ (Selectivity ≥ 100) | < 50 | 0.5 to 5
COc1ccc(CCC(=O)N[C@@H](CC2COc3c(C)cccc32)B(O)O)nc1 (stereo partly drawn) [Compound No. 86, [(1R)-1-[3-(5-methoxy-2-pyridyl)propanoylamino]-2-(7-methyl-2,3-dihydrobenzofuran-3-yl)ethyl]boronic acid] | +++++ (Selectivity ≥ 100) | < 50 | > 5
COc1ccc(CCC(=O)N[C@H](CC2COc3c(C)cccc32)B(O)O)nc1 (stereo partly drawn) [Compound No. 87, [(1S)-1-[3-(5-methoxy-2-pyridyl)propanoylamino]-2-(7-methyl-2,3-dihydrobenzofuran-3-yl)ethyl]boronic acid] | + (Selectivity < 10) | 500 to 5000 | > 5
COc1ccc(CC(=O)N[C@@H](C[C@H]2COc3c(C)cccc32)B(O)O)cc1 [Compound No. 88, [(1R)-1-[[2-(4-methoxyphenyl)acetyl]amino]-2-[(3R)-7-methyl-2,3-dihydrobenzofuran-3-yl]ethyl]boronic acid] | +++++ (Selectivity ≥ 100) | 50 to 500 | > 5
COc1ccc(CC(=O)N[C@@H](C[C@@H]2COc3c(C)cccc32)B(O)O)cc1 [Compound No. 89, [(1R)-1-[[2-(4-methoxyphenyl)acetyl]amino]-2-[(3S)-7-methyl-2,3-dihydrobenzofuran-3-yl]ethyl]boronic acid] | +++++ (Selectivity ≥ 100) | < 50 | > 5
N#Cc1ccccc1CC(=O)N[C@@H](Cc1coc2ccccc12)B(O)O [Compound No. 90, [(1R)-2-(benzofuran-3-yl)-1-[[2-(2-cyanophenyl)acetyl]amino]ethyl]-boronic acid] | +++++ (Selectivity ≥ 100) | < 50 | 0.5 to 5
CC(C)(O)c1ccc(CC(=O)N[C@@H](Cc2coc3ccccc23)B(O)O)cc1 [Compound No. 91, [(1R)-2-(benzofuran-3-yl)-1-[[2-[4-(1-hydroxy-1-methyl-ethyl)phenyl]acetyl]amino]ethyl]boronic acid] | +++++ (Selectivity ≥ 100) | < 50 | 0.05 to 0.5
COc1cccc2c(C[C@H](NC(=O)Cc3ccccc3)B(O)O)coc12 [Compound No. 92, [(1R)-2-(7-methoxybenzofuran-3-yl)-1-[(2-phenylacetyl)amino]ethyl]-boronic acid] | +++++ (Selectivity ≥ 100) | < 50 | 0.05 to 0.5
CO[C@@H](C(=O)N[C@@H](CC1COc2c(C)cccc21)B(O)O)c1ccccc1 (stereo partly drawn) [Compound No. 93, [(1R)-1-[[(2R)-2-methoxy-2-phenyl-acetyl]amino]-2-(7-methyl-2,3-dihydrobenzofuran-3-yl)ethyl]boronic acid] | +++++ (Selectivity ≥ 100) | < 50 | > 5

Other lines, results leading:

Selectivity LMP7 vs Beta5 [1] | IC50 [1] [nM] | IC50 [2] [µM] | SMILES
+++++ (Selectivity ≥ 100) | < 50 | 0.5 to 5 | Cc1ccc2c(C[C@H](NC(=O)Cc3ccccc3)B(O)O)coc2c1C [Compound No. 94, [(1R)-2-(6,7-dimethylbenzofuran-3-yl)-1-[(2-phenylacetyl)amino]ethyl]boronic acid]
+++++ (Selectivity ≥ 100) | < 50 | 0.5 to 5 | COc1ccc(CCC(=O)N[C@@H](Cc2coc3c(C)c(C)ccc23)B(O)O)nc1 [Compound No. 95, [(1R)-2-(6,7-dimethylbenzofuran-3-yl)-1-[3-(5-methoxy-2-pyridyl)propanoylamino]ethyl]boronic acid]
+++++ (Selectivity ≥ 100) | 50 to 500 | > 5 | C[C@H](C(=O)N[C@@H](Cc1coc2ccccc12)B(O)O)c1ccccc1C(=O)N(C)C [Compound No. 96, [(1R)-2-(benzofuran-3-yl)-1-[[(2S)-2-[2-(dimethylcarbamoyl)phenyl]-propanoyl]amino]ethyl]boronic acid]
+++++ (Selectivity ≥ 100) | 50 to 500 | > 5 | C[C@@H](C(=O)N[C@@H](Cc1coc2ccccc12)B(O)O)c1ccccc1C(=O)N(C)C [Compound No. 97, [(1R)-2-(benzofuran-3-yl)-1-[[(2R)-2-[2-(dimethylcarbamoyl)-phenyl]propanoyl]amino]ethyl]boronic acid]
++++ (70 ≤ Selectivity < 100) | < 50 | 0.5 to 5 | O=C(Cc1ccccc1-c1ccccc1)N[C@@H](Cc1coc2ccccc12)B(O)O [Compound No. 98, [(1R)-2-(benzofuran-3-yl)-1-[[2-(2-phenylphenyl)acetyl]amino]-ethyl]boronic acid]
+++++ (Selectivity ≥ 100) | 50 to 500 | > 5 | C[C@@H](C(=O)N[C@@H](C[C@@H]1COc2ccccc21)B(O)O)c1ccccc1C(=O)N(C)C [Compound No. 99, [(1R)-2-[(3S)-2,3-dihydrobenzofuran-3-yl]-1-[[(2R)-2-[2-(dimethylcarbamoyl)phenyl]propanoyl]amino]ethyl]boronic acid]
+++++ (Selectivity ≥ 100) | 50 to 500 | > 5 | Cc1cccc2c1OCC2C[C@H](NC(=O)Cc1ccccc1C(=O)N(C)C)B(O)O (stereo partly drawn) [Compound No. 100, [(1R)-1-[[2-[2-(dimethylcarbamoyl)phenyl]acetyl]amino]-2-(7-methyl-2,3-dihydrobenzofuran-3-yl)ethyl]boronic acid]
+++++ (Selectivity ≥ 100) | < 50 | > 5 | Cc1ccc2c(c1C)OCC2C[C@H](NC(=O)Cc1ccccc1)B(O)O (stereo partly drawn) [Compound No. 101, [(1R)-2-(6,7-dimethyl-2,3-dihydrobenzofuran-3-yl)-1-[(2-phenylacetyl)-amino]ethyl]boronic acid]
+++++ (Selectivity ≥ 100) | 50 to 500 | > 5 | COc1ccc(CCC(=O)N[C@@H](CC2COc3c2ccc(C)c3C)B(O)O)nc1 (stereo partly drawn) [Compound No. 102, [(1R)-2-(6,7-dimethyl-2,3-dihydrobenzofuran-3-yl)-1-[3-(5-methoxy-2-pyridyl)propanoylamino]ethyl]boronic acid]
